One assay relates to IL-6. As to the kind of experiment: IL-6 inhibition in LPS-stimulated human peripheral blood mononuclear cells (HTRF). To be noted: Homo sapiens, PBMC; for EC50: huPBMCs, LPS 50 ng/mL, 22 hours, IL-6 HTRF; for inhibition at 10 µM: read-out: percent inhibition at 10 μM. In kind it is cell-based. The method, boiled down:
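Fresh human PBMCs at 1×10e6 cells/mL in 1% FBS-RPMI were pretreated with compound for 2 h, then stimulated with 50 ng/mL E. coli 0111:B4 LPS for a further 22 h at 37 °C. IL-6 was measured by HTRF (665/620 nm ratio). Values were normalized to DMSO and fitted 4-parameter for EC50.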
On the technique in general: TR-FRET usually uses a lanthanide donor and a delayed reading to cut background.

Assay [1] concerns Wnt-responsive promoter (Sp5-Luc reporter) in SW480 colon carcinoma cells. In words: Sp5-Luc reporter gene screening assay for Wnt activity in SW480 cells. In kind it is cell-based, human. To be noted: Homo sapiens, 36 to 48 hours, luminescence. The method, boiled down:
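SW480 cells stably carrying a luciferase reporter under an Sp5 promoter with eight TCF/LEF sites, plated at 4,000 cells/well in DMEM with 1% FBS and incubated 36 to 48 hours at 37° C. Luminescence normalized to DMSO-only cells; EC50 fitted by four-parameter nonlinear regression.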
(In a reporter assay the amount or activity of a reporter protein is the signal.)

Assay [2] deals with primary human fibroblasts derived from IPF patients (LL29 cells), α-smooth muscle actin. In words: Inhibition of fibrotic process: αSMA in TGF-β1 treated LL29 fibroblasts. In kind it is cell-based. To be noted: Homo sapiens, Fibroblast, 96 h; LL29 cells, TGF-β1 20 ng/mL, 4 days, % cells positive for αSMA. In short, it runs like this:
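LL29 fibroblasts from IPF patients, in F12 medium with 1% FBS, treated with TGF-β1 plus compound; TGF-β1 with DMSO as positive control, DMSO alone as negative control. After 4 days' incubation, SYTOX green nucleic acid stain added at 1 μM final, 30 min at room temperature.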

Assay [3] relates to SW480 colon carcinoma cells. In words: Cell viability assay (CellTiter-Glo) in SW480 cells. In kind it is cell-based, human. To be noted: Homo sapiens, 96 h, four days.
The subject of assay [4] is Tau phosphorylation at Ser396 (pSer396). As to the kind of experiment: Tau phosphorylation (pSer396) assay in SH-SY5Y cells. In kind it is cell-based, human.
Description: Two days before treatment, cells were seeded onto 96 well plates at 5×10^4 cells/well.
The above synthesized compounds were screened using the cell assay procedure to assess decrease Tau phosphorylation at Ser396 (pSer396) described below.
Cells were lysed with RIPA buffer complemented with phosphatase and protease inhibitors then lysates were spun down at 12,000 g for 10 min to remove any cellular debris.
For assay [5], the target named is recombinant DYRK1A kinase (Homo sapiens (Human), UniProt Q13627). As to the kind of experiment: DYRK1A kinase assay (Ser/Thr 18 peptide Z-lyte, FRET). To be noted: DYRK1A kinase, 30 μM ATP, one hour; method calls values IC50.
In another assay the target is recombinant GSK3β kinase (Homo sapiens (Human), UniProt P49841). In words: GSK3β kinase assay (Ser/Thr 09 peptide Z-lyte, FRET). In kind it is biochemical. To be noted: GSK3β kinase, 46 μM ATP, one hour; method calls values IC50.
Sequence of recombinant GSK3β kinase (P49841 whole entry): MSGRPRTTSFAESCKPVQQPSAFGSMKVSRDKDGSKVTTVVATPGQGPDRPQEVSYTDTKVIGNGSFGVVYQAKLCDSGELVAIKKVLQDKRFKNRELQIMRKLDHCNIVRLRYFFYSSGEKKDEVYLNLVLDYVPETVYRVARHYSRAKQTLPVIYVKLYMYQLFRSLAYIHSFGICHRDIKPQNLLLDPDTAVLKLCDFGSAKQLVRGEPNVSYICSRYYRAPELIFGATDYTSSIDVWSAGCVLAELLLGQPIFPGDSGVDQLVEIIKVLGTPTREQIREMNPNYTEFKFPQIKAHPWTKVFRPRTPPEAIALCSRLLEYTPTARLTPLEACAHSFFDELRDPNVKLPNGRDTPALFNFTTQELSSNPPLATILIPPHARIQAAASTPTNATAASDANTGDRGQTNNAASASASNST
[6] abbreviates: Homo sapiens, SH-SY5Y cells, overnight (16-18 h), pSer396 Tau ELISA, read-out: EC50.

For eleven compounds, EC50 and inhibition results are on record in patent publication US10744128B2, “6-(5-membered heteroaryl)isoquinolin-3-yl-(5-membered heteroaryl) carboxamides and preparation and use thereof” (Samumed, LLC, priority 2017, dated 2020).

Where two headings read alike, the source gives them in different places.

As a reminder, the EC50 is the concentration giving half of the maximal effect. On to `CC(C)OC(=O)N1CCC(n2cc(C(=O)Nc3cc4cc(-c5cnn(C)c5)ccc4cn3)cn2)CC1` [Compound 10, isopropyl 4-(4-((6-(1-methyl-1H-pyrazol-4-yl)isoquinolin-3-yl)carbamoyl)-1H-pyrazol-1-yl)piperidine-1-carboxylate], for which the EC50 with IL-6 turned out to be 277 nM; in assay [1] it was 55 nM; in assay [2] it was 62 nM; in assay [3], 105 nM; in assay [4] (setting [6]), 64 nM; in assay [5] it was 3 nM. Moreover, the concentration giving a half-maximal response (EC50) at recombinant GSK3β kinase was 4180 nM.

In the case of `Cn1cc(-c2ccc3cnc(NC(=O)c4cnn(C5CCNCC5)c4)cc3c2)cn1` [Compound 2, N-(6-(1-methyl-1H-pyrazol-4-yl)isoquinolin-3-yl)-1-(piperidin-4-yl)-1H-pyrazole-4-carboxamide], the concentration for a half-maximal effect (EC50) was found to be 114 nM in the assay with IL-6; 27 nM in assay [1]; 93 nM in assay [2]; 38 nM in assay [3]; 99 nM in assay [4] (setting [6]); 2 nM in assay [5]. Also, the EC50 at recombinant GSK3β kinase came out at 1040 nM.

For the compound `Cc1ncc(C(=O)Nc2cc3cc(-c4cnc(C)n4C)ccc3cn2)s1` [Compound 62, N-(6-(1,2-Dimethyl-1H-imidazol-5-yl)isoquinolin-3-yl)-2-methylthiazole-5-carboxamide], the 50% effective concentration (EC50) was determined as 2760 nM in the assay on IL-6; 110 nM in assay [1]; 644 nM in assay [2]; 23 nM in assay [3]; 193 nM in assay [4] (setting [6]); 2 nM in assay [5]. The concentration for a half-maximal effect (EC50) at recombinant GSK3β kinase was 450 nM.

In assay [4] (Homo sapiens, SH-SY5Y), `COc1ccc2c(c1)[nH]c1c(C)nccc12` [Harmine, reference compound] gave an EC50 of over 10000 nM.

Broadly, the inhibition is the share of the control response that was lost under treatment. In the case of `Cn1cc(-c2ccc3cnc(NC(=O)c4csc(C5CCN(CCF)CC5)n4)cc3c2)cn1` [Compound 27, 2-(1-(2-Fluoroethyl)piperidin-4-yl)-N-(6-(1-methyl-1H-pyrazol-4-yl)isoquinolin-3-yl)thiazole-4-carboxamide], the EC50 in the assay on IL-6 is over 10000 nM; in assay [1] it was 300 nM; in assay [2] it was 2520 nM; in assay [3], 3650 nM; in assay [4] (setting [6]), over 10000 nM; in assay [5] it was 14 nM. In addition, on recombinant GSK3β kinase, the concentration giving a half-maximal response (EC50) came to 3600 nM. The inhibition at 10 µM in the assay on IL-6 was 34.5%.

For the compound `CC(C)N1CCC(n2cc(C(=O)Nc3cc4cc(-c5cnn(C)c5)ccc4cn3)cn2)CC1` [Compound 8, 1-(1-isopropylpiperidin-4-yl)-N-(6-(1-methyl-1H-pyrazol-4-yl)isoquinolin-3-yl)-1H-pyrazole-4-carboxamide], the EC50 in the assay on IL-6 was 504 nM; in assay [1], 11 nM; in assay [2] it was 72 nM; in assay [3] it was 59 nM; in assay [4] (setting [6]) it was 27 nM; in assay [5] it was 1 nM. The concentration giving a half-maximal response (EC50) at recombinant GSK3β kinase amounted to 780 nM.

Turning to `Cc1ncc(C(=O)Nc2cc3cc(-c4cnn(C5CCN(C)CC5)c4)ccc3cn2)s1` [Compound 28, 2-Methyl-N-(6-(1-(1-methylpiperidin-4-yl)-1H-pyrazol-4-yl)isoquinolin-3-yl)thiazole-5-carboxamide], the EC50 was 9980 nM in the assay on IL-6; 1160 nM in assay [1]; 381 nM in assay [2]; 340 nM in assay [3]; 2100 nM in assay [4] (setting [6]); 24 nM in assay [5]. At recombinant GSK3β kinase, the EC50 is over 10000 nM.

`Cc1ncc(-c2ccc3cnc(NC(=O)Cn4ccnc4)cc3c2)o1` [Compound 64, 2-(1H-imidazol-1-yl)-N-(6-(2-methyloxazol-5-yl)isoquinolin-3-yl)acetamide]: the EC50 was determined as 427 nM with IL-6; 1150 nM in assay [1]; 187 nM in assay [2]; 836 nM in assay [3]; 85 nM in assay [4] (setting [6]); 4 nM in assay [5]. Further, on recombinant GSK3β kinase, the EC50 came to 9 nM.

Take `CCN1/C(=C/C(C)=O)Sc2ccc(O)cc21` [Indy, reference compound]: in assay [4] (SH-SY5Y cells, overnight (16-18 h), pSer396 Tau ELISA, read-out: EC50), the concentration giving a half-maximal response (EC50) is over 10000 nM.

With `Cc1nnc(-c2ccc3cnc(NC(=O)c4cn(C5CCN(C)CC5)nn4)cc3c2)s1` [Compound 67, N-(6-(5-Methyl-1,3,4-thiadiazol-2-yl)isoquinolin-3-yl)-1-(1-methylpiperidin-4-yl)-1H-1,2,3-triazole-4-carboxamide], the EC50 was over 10000 nM in the assay on IL-6; 463 nM in assay [1]; 4360 nM in assay [2]; 899 nM in assay [3]; 31 nM in assay [5]; 2340 nM on recombinant GSK3β kinase. Besides, in the assay on IL-6, the inhibition at 10 µM amounted to 8.3%.

Take `CC(C)n1cc(C(=O)Nc2cc3cc(-c4cncn4C)ccc3cn2)cn1` [Compound 42, 1-Isopropyl-N-(6-(1-methyl-1H-imidazol-5-yl)isoquinolin-3-yl)-1H-pyrazole-4-carboxamide]: the EC50 is over 10000 nM in the assay on IL-6; 602 nM in assay [1]; 2500 nM in assay [2]; 999 nM in assay [3]; 23 nM in assay [5]; 9990 nM at recombinant GSK3β kinase. Moreover, the inhibition at 10 µM with IL-6 turned out to be 37.1%.
